{
  "source": "patent US11617740B2",
  "about": "“Chemical inhibitors of Mycobacterium tuberculosis DosRST signaling and persistence” (priority 2017, dated 2023)",
  "key": {"DosR regulon": {"tested_on": "DosR regulon", "assay_type": "cell-based", "conditions": "ΔdosR mutant, 40 μM, >2-fold; q<0.05"}, "WT DosS heme [1]": {"biological_target": "T1, WT DosS heme (Mycobacterium tuberculosis, UniProt P9WGK3)", "assay": "UV-visible spectroscopy of DosS heme", "assay_type": "biochemical", "conditions": "for position of DosS Soret peak after treatment: DTN-reduced DosS (430 nm), 100 μM"}, "DosS(E87L)": {"biological_target": "DosS(E87L) (Mycobacterium tuberculosis, UniProt P9WGK3, E87L)", "assay_type": "biochemical"}, "DosS(G117L)": {"biological_target": "DosS(G117L) (Mycobacterium tuberculosis, UniProt P9WGK3, G117L)", "assay_type": "biochemical"}, "WT DosS heme [2]": {"biological_target": "T1, WT DosS heme", "conditions": "identical conditions, gradual shift to oxidized state; cited from earlier work"}},
  "note": "Several values for one entry are separate records, joined by “and”; a condition that tells them apart may be missing. Identical values can stand only once. Entries after “also recorded” stand apart in the source; their conditions may differ.",
  "data": [
    {"compound": "O=C(Nc1ccno1)Nc1ccc(Cl)cc1Cl", "note": "[HC106A]", "values": [
      {"measurement": "genes downregulated in CDC1551(ΔdosR) background", "setting": "DosR regulon", "value": 51, "unit": "genes"},
      {"measurement": "position of DosS Soret peak after treatment", "setting": "WT DosS heme [1]", "value": "422 nm and ~420 nm"},
      {"measurement": "change of DosS E87L UV-visible spectrum", "setting": "DosS(E87L)", "value": "no change on overall spectrum"},
      {"measurement": "position of DosS(E87L) Soret peak after treatment", "setting": "DosS(E87L)", "value": 422, "unit": "nm"},
      {"measurement": "change of DosS(G117L) UV-visible spectrum", "setting": "DosS(G117L)", "value": "no change to the overall spectrum; also recorded: did not change; also recorded: promoted HC106A resistance"}
    ]},
    {"compound": "[C-]#[O+].[C-]#[O+].[C-]#[O+].[C-]#[O+].[C-]#[O+].[C-]#[O+].[Cl][Ru][Cl].[Cl][Ru][Cl]", "note": "[CORM-2, tricarbonylchlororuthenium(II) dimer, reference compound]", "values": [
      {"measurement": "position of DosS Soret peak after treatment", "setting": "WT DosS heme [1]", "value": 422, "unit": "nm"}
    ]},
    {"compound": "C[C@@H]1CC[C@H]2[C@@H](C)C(=O)O[C@@H]3O[C@@]4(C)CC[C@@H]1[C@]32OO4", "note": "[artemisinin, reference compound]", "values": [
      {"measurement": "position of DosS Soret peak after treatment (earlier work)", "setting": "WT DosS heme [2]", "value": 403, "unit": "nm"}
    ]},
    {"compound": "[C-]#[O+]", "note": "[CO, carbon monoxide, reference compound]", "values": [
      {"measurement": "position of DosS Soret peak after treatment", "setting": "WT DosS heme [1]", "value": 422, "unit": "nm"}
    ]},
    {"compound": "CN(C)CCCN1C(=O)c2cccc3c(Br)ccc(c23)C1=O", "note": "[HC104A]", "values": [
      {"measurement": "genes downregulated in CDC1551(ΔdosR) background", "setting": "DosR regulon", "value": 171, "unit": "genes"},
      {"measurement": "effect on DosS UV-visible spectrum / heme redox", "setting": "WT DosS heme [1]; DTN-reduced DosS, 400 μM HC104A", "value": "no change; also recorded: inhibitory activity was not observed; also recorded: no impact on the position of the Soret peak"}
    ]}
  ]
}
